Literature values as cited in patent US20020045168A1, “Computer based modeling system” (priority 2000, published 2002).

Legend:
Conditions in all cases: experimental, native ligand
[1] = tested on: AMP aptamer (1am0)
[2] = tested on: tobramycin aptamer (2tob)
[3] = tested on: citruline aptamer (1kod)
[4] = tested on: FMN aptamer (1fmn)
[5] = tested on: Arg aptamer (1koc)

For Nc1ncnc2c1ncn2[C@@H]1O[C@H](COP(=O)(O)O)[C@@H](O)[C@H]1O [AMP, adenosine monophosphate], the “Exptl ΔGbind” value [1] is given as −28.5 kJmol^−1.

In the case of NC[C@H]1O[C@H](O[C@H]2[C@H](O)[C@@H](O[C@H]3O[C@H](CO)[C@@H](O)[C@H](N)[C@H]3O)[C@H](N)C[C@@H]2N)[C@H](N)C[C@@H]1O [Tobramycin, tobramycin], the “Exptl ΔGbind” value [2] is given as −45.2 kJmol^−1.

For NC(=O)NCCC[C@H](N)C(=O)O [Citruline, citruline], the “Exptl ΔGbind” value [3] is given as −28.5 kJmol^−1.

For Cc1cc2nc3c(=O)[nH]c(=O)nc-3n(C[C@H](O)[C@H](O)[C@H](O)COP(=O)(O)O)c2cc1C [Fmn, flavin mononucleotide], the “Exptl ΔGbind” value [4] is listed as −30.1 kJmol^−1.

For N=C(N)NCCC[C@H](N)C(=O)O [Arginine, arginine], the “Exptl ΔGbind” value [5] is given as −28.5 kJmol^−1.
